{
  "source": "patent US20170157103A1",
  "about": "“METHODS OF TREATING DIFFUSE LARGE B-CELL LYMPHOMA USING 3-(4-AMINO-1-OXOISOINDOLIN-2-YL)PIPERIDINE-2,6-DIONE” (Celgene Corporation, priority 2015, published 2017)",
  "key": {"[1]": {"tested_on": "relapsed or refractory diffuse large B-cell lymphoma", "assay": "Clinical trial of lenalidomide vs control in relapsed or refractory DLBCL patients, subtype determined by NanoString", "format": "in vivo, human", "settings": "for Median overall survival / Median progression free survival: relapsed or refractory DLBCL patients", "source_text": "DLBCL lymph-node biopsies were formalin fixed and paraffin embedded (FFPE) similarly to that described in Scott et al., Blood 2014 123(8) 1214-1217, the disclosure of which is incorporated by reference herein. Nucleic acids obtained from the tissues were extracted using the QIAGEN AllPrep DNA/RNA FFPE Kit, with deparaffinization achieved using the QIAGEN Deparaffinization Solution, according to the manufacturer's instructions. The RNA was quantitated using spectrophotometry (NanoDrop, Thermo Science, DE). Gene expression on approximately 200 nanograms of RNA was used to determine gene expression levels by means of NanoString technology (NanoString Technologies, WA). The total RNA was hybridized to the custom codesets at 65° C. overnight. The reaction was processed on the nCounter™ Prep Station and gene expression data was then acquired on the nCounter™ Digital Analyzer.\n(§1) This clinical benefit is observed when subtype is determined by the Affymetrix test (FIG. 1) or by the NanoString test (FIG. 2)."}, "[2]": {"tested_on": "relapsed or refractory diffuse large B-cell lymphoma", "assay": "Clinical trial of lenalidomide vs control in relapsed or refractory DLBCL patients, subtype determined by Affymetrix", "format": "in vivo, human", "settings": "for Median overall survival / Median progression free survival: relapsed or refractory DLBCL patients", "source_text": "DLBCL lymph-node biopsies were either snap frozen or formalin fixed and paraffin embedded similarly to that described by Scott et al., Blood 2014 123(8) 1214-1217, the disclosure of which is incorporated herein in its entirety. Messenger RNA was purified and reverse transcribed into cDNA.\nDNA microarray analysis of gene expression was done essentially as described below. The cDNA clones on the Lymphochip microarray are available from Research Genetics. Fluorescent images of hybridized microarrays were obtained using a GenePix 4000 microarray scanner (Axon Instruments). Images were analysed with ScanAlyze (M. Eisen; http://www.microarrays.org/software), and fluorescence ratios (along with numerous quality control parameters; see ScanAlyze manual) were stored in a custom database. Single spots or areas of the array with obvious blemishes were flagged and excluded from subsequent analyses. Fluorescence ratios were calibrated independently for each array by applying a single scaling factor to all fluorescent ratios from each array; this scaling factor was computed so that the median fluorescence ratio of well-measured spots on each array was 1.0.\nAll cDNA microarray analyses were performed using poly-(A)^+ mRNA (Fast Track, Invitrogen). In each experiment, fluorescent cDNA probes were prepared from an experimental mRNA sample (Cy5-labelled) and a control mRNA sample (Cy3-labelled) isolated from a pool of nine lymphoma cell lines (Raji, Jurkat, L428, OCI-Ly3, OCI-Ly8, OCI-Lyl, SUDHL5, SUDHL6 and WSU1). The use of a common control cDNA probe allows the relative expression of each gene to be compared across all samples.\nAll non-flagged array elements for which the fluorescent intensity in each channel was greater than 1.4 times the local background were considered well measured. The ratio values were log-transformed (base 2) and stored in a table (rows, individual cDNA clones; columns, single mRNA samples). Data for the genes were centered by subtracting (in log space) the median observed value, to remove any effect of the amount of RNA in the reference pool. This dataset contains 4,026 array elements. Hierarchical clustering was applied to both axes using the weighted pair-group method with centroid average as implemented in the program Cluster (M. Eisen; http://www.microarrays.org/software). The distance matrixes used were Pearson correlation for clustering the arrays and the inner product of vectors normalized to magnitude 1 for the genes. The results were analysed with Tree View (M. Eisen; http://www.microarrays.org/software).\nas §1"}, "[3]": {"settings": "ABC plus unclassified subtype (by Nanostring)"}, "[4]": {"settings": "ABC plus unclassified subtype (by Affymetrix)"}},
  "data": [
    {"smiles": "Nc1cccc2c1CN(C1CCC(=O)NC1=O)C2=O", "note": "(centres unmarked) [lenalidomide, 3-(4-amino-1-oxoisoindolin-2-yl)piperidine-2,6-dione]", "values": [
      {"measurement": "Clinical benefit compared to control as measured by progression free survival", "setting": "[1]; ABC DLBCL subtype patients and unclassifiable patients, subtype by NanoString test (FIG. 2)", "result": "benefit"},
      {"measurement": "Median overall survival", "setting": "[1]; [3]", "result": "36.9/108.4 weeks"},
      {"measurement": "Median progression free survival", "setting": "[1]; [3]", "result": "6.6/82 weeks"},
      {"measurement": "Median overall survival", "setting": "[1]; ABC subtype (by Nanostring)", "result": "37/43.7 weeks"},
      {"measurement": "Median progression free survival", "setting": "[1]; ABC subtype (by Nanostring)", "result": "6/27 weeks"},
      {"measurement": "Median overall survival", "setting": "[1]; GBC subtype (by Nanostring)", "result": "34.9/18 weeks"},
      {"measurement": "Median progression free survival", "setting": "[1]; GBC subtype (by Nanostring)", "result": "9/8.7 weeks"},
      {"measurement": "Clinical benefit compared to control as measured by progression free survival", "setting": "[2]; ABC DLBCL subtype patients and unclassifiable patients, subtype by Affymetrix test (FIG. 1)", "result": "benefit"},
      {"measurement": "Median overall survival", "setting": "[2]; [4]", "result": "16.3/33^ weeks"},
      {"measurement": "Median progression free survival", "setting": "[2]; [4]", "result": "6.3/9.1 weeks"},
      {"measurement": "Median overall survival", "setting": "[2]; ABC subtype (by Affymetrix)", "result": "18.6/108.4 weeks"},
      {"measurement": "Median progression free survival", "setting": "[2]; ABC subtype (by Affymetrix)", "result": "6.2/82 weeks"},
      {"measurement": "Median overall survival", "setting": "[2]; GBC subtype (by Affymetrix)", "result": "20/30 weeks"},
      {"measurement": "Median progression free survival", "setting": "[2]; GBC subtype (by Affymetrix)", "result": "7.1/13.2 weeks"}
    ]}
  ]
}
